# Measured values taken from patent US9399625B2, “Acridone compounds” (Oregon Health & Science University, priority 2006, dated 2016).
# “Also recorded” adds a separate entry of the source. Like-named read-outs stand apart in the source and are kept apart here.
# How the values were obtained:
# [1] = Heme-binding affinity (spectrophotometric titration); conditions: Table 3
# Text: With continued reference to FIG. 1, panel B illustrates the spectrophotometric titration curve of the heme:3,6-bis-ε-(N,N-diethylamino)-amyloxy xanthone (C5) complex. The apparent binding constant was derived from the best fit (solid line) of a 1:1 (heme dimer:C5) association model. […] Panels A and B show the fluorescence localization of C5 and LysoTracker Red, respectively.
# [2] = system: CQ-sensitive D6 strain of P. falciparum; test: In vitro antimalarial activity, SYBR Green MSF assay, D6; format: cell-based; conditions: Plasmodium falciparum
# Text: (§1) This example describes the screening of disclosed antimalarial acridones against the CQ-sensitive D6 strain and the MDR Dd2 strain of P. falciparum for in vitro antimalarial activity.
# [3] = system: MDR (Dd2) strain of P. falciparum; test: In vitro chemosensitizing effects of acridones (RMI), Dd2; format: cell-based; conditions: Plasmodium falciparum, DD2, read-out: IC50 of CQ, Dd2
# Text: (§2) Antimalarial drug combinations can be assessed in a number of ways. For example, the response modification index (RMI) can be calculated by the following formula: RMI=IC50 of drug A in the presence of drug B/IC50 of drug A alone, where drug A is an existing antimalarial and B is a single sub-inhibitory concentration of the acridone candidate. An RMI less than 1.0 represents chemosensitization and possible synergy. A second method of evaluating combination therapies is Fractional Inhibitory Concentration, (e.g., FIC50=[IC50 of Drug A in the presence of a fixed amount of Drug B]/[IC50 of Drug A alone]). RMI and FIC are helpful measures for side-by-side comparison of multiple chemosensitizer drugs at fixed concentrations, but neither distinguishes between additive and synergistic effects, or describes effects over a wide concentration range. Standard FIC indices (FIC of Drug A+FIC of Drug B) distinguish synergistic, additive and antagonistic interactions, but are dependent on the correct estimation of the expected effect of the fixed test drug.
# [4] = In vitro heme aggregation assay; conditions: 25 mM phosphate buffer, pH 4.8, 30 minutes at room temperature
# Method: This example describes the in vitro inhibition of heme aggregation by xanthone 2,3,4,5,6-pentahydroxyxanthone. Conditions: 25 mM Phosphate buffer, pH 5.2, 1 hour incubation at 37° C. Further details of this assay are described by Ignatushchenko et al. in Xanthones as antimalarial agents; studies of a possible mode of action.
# This example describes visual evidence that acridones disclosed herein form soluble complexes with heme under mildly acidic conditions. […] Employing the same assay conditions, heme was mixed with T2 or T3.5 under mildly acidic conditions (25 mM phosphate buffer, pH 4.8) and monitored. […] Without being limited to theory, it is believed that for some compounds inhibition of heme aggregation in vitro can be correlated with inhibition of hemozoin formation in vivo.
# [5] = system: MDR P. falciparum strain W2; test: In vitro chemosensitization to chloroquine (RMI), strain W2; format: cell-based; conditions: Plasmodium falciparum, W2, read-out: IC50 of CQ in combination with 5 μM of selected drug, W2
# [6] = system: MDR Dd2 strain of P. falciparum; test: In vitro antimalarial activity, SYBR Green MSF assay, Dd2; format: cell-based; conditions: Plasmodium falciparum
# Text: as §1
# As shown in Table 3 and Table 4, selected soluble acridone derivatives were screened for antimalarial activity against the CQ-sensitive D6 and the MDR Dd2 strains of P. falciparum.
# [7] = system: MDR P. falciparum strain Dd2; test: In vitro chemosensitization to chloroquine (RMI), strain Dd2; format: cell-based; conditions: Plasmodium falciparum, DD2, read-out: IC50 of CQ in combination with 5 μM of selected drug, Dd2
# [8] = system: CQS (D6) strain of P. falciparum; test: In vitro chemosensitizing effects of acridones (RMI), D6; format: cell-based; conditions: Plasmodium falciparum, D6, read-out: IC50 of CQ, D6
# Text: as §2
# [9] = system: late trophozoites in PRBCs; test: Morphological changes in acridone treated parasites (blood smears, light microscopy); conditions: compared to drug-free controls
# Text: This example provides morphological changes in acridone treated parasites. […] These preliminary evaluations of blood smears by light microscopy indicate that acridones cause alterations in parasite morphology and viability.
# [10] = system: murine splenic lymphocytes (MSLCs); test: Cytotoxicity by Alamar Blue assay; conditions: for IVTI: ratio of cytotoxicity IC50 (vs. MSLCs) to antimalarial IC50 against D6; for IC50: cytotoxicity
# P. yoelii sporozoites = test: Prophylactic efficacy, murine sporozoite-induced malaria model; format: in vivo; conditions: 160 mg/kg ig on days −1, 0 and 1
# Method: This example evaluates the prophylactic efficacy of the acridone T2. T2 was evaluated in a murine P. yoelii sporozoite-induced malaria model to determine prophylactic efficacy.
# Mice were treated with 160 mg/kg ig, on days −1, 0, and 1 with injection of 250,000 sporozoites on day 0.
# [11] = target: T1, recombinant human norepinephrine transporter (hNET) (Homo sapiens, UniProt P23975); test: [125I]RTI-55 binding, HEK-hNET
# T1 construct: expressed in transfected cells
# [12] = target: T2, recombinant human dopamine transporter (hDAT) (Homo sapiens, UniProt Q01959); test: [125I]RTI-55 binding, HEK-hDAT
# T2 construct: expressed in transfected cells
# P. berghei (ANKA) = test: Efficacy vs patent P. berghei infection in mice
# [13] = General toxicity in treated mice; conditions: 256 mg/kg/day×3 days
# [14] = system: CQ-sensitive P. yoelii (strain K); test: 4-day suppressive test in female CF-1 mice; format: in vivo
# Method: This example describes evaluation of the in vivo antimalarial efficacy of the disclosed acridones against CQ-sensitive P. yoelii (strain K) in female CF-1 mice. Illustrated in FIG. 2, are the results of a 4-day suppressive test with acridone T2 (3-(2-diethylaminoethoxy)-6-chloro-9-acridone)) in PBS administered intragastrically (ig) by gavage one hour after infection and then once daily, 24, 48 and 72 hours later.
# This example describes evaluation of acridones in rodent models of blood-stage malaria.
# P. yoelii = test: Single-dose ig efficacy after patent infection in mice; format: in vivo; conditions: single ig dose 100 mg/kg; HCl salt
# Method: The single-dose efficacy of acridone compounds also was assessed in vivo using ig treatment after patent infection. Test compounds were administered as a single dose at 100 mg/kg (30 mg/kg for CQ) 24 hours after P. yoelii infection, and blood smears were collected 48 and 72 hours post-treatment.
# MDR P. falciparum Dd2 = test: Fixed-ratio combination (isobologram) with quinoline antimalarials, Dd2; format: cell-based; conditions: isobolar analysis
# Method: In one embodiment, synergism is assessed herein using fixed-ratio combinations that provide information over a wide range of drug concentrations. […] If these stock solutions were termed Drug A and Drug B, then six final stock solutions were prepared from this initial stock: Drug A alone, Drug B alone, and volume:volume mixtures of Drug A and B in the following ratios: 4:1, 3:2, 2:3, and 1:4. Two-fold dilutions of each of the six final stock solutions were done robotically across a 96-well plate in quadruplicate. Subsequent steps were typical of standard drug-susceptibility methods. […] The data pointed from all six curves were then analyzed using Calcusyn software (commercially available from BioSoft, Cambridge, UK) for determination of synergy. Output from this analysis included FIC values used to plot isobolograms as well as a rigorously determined synergy index, termed the combination index (CI) (Calcusyn). FIC50 isobolograms, CI's and tabulation of IC90 component drug concentrations were reported.
# The combinations of the acridones T3.5 and T2 with quinine were assessed for synergism.
# FIG. 6 is an isobologram charting the efficacy of quinine in combination with T3.5 in vitro against CQ-sensitive (D6) and MDR (Dd2) P. falciparum.
# P. yoelii (K) = test: Curative efficacy vs patent infection, three once-daily doses (adapted 6-day Thompson test)
# [15] = target: T3, recombinant human serotonin transporter (hSERT) (Homo sapiens, UniProt P31645); test: [125I]RTI-55 binding, HEK-hSERT
# T3 construct: expressed in transfected cells
# [16] = D6, Table 2, average of 4 independent experiments, read-out: IC50, D6
# [17] = D6, Table 3, MSF assay, read-out: IC50 P. falciparum D6
# [18] = DD2, Table 2, average of 4 independent experiments, read-out: IC50, Dd2
# [19] = DD2, Table 3, MSF assay, read-out: IC50 P. falciparum Dd2
# T1 sequence (P23975 whole entry): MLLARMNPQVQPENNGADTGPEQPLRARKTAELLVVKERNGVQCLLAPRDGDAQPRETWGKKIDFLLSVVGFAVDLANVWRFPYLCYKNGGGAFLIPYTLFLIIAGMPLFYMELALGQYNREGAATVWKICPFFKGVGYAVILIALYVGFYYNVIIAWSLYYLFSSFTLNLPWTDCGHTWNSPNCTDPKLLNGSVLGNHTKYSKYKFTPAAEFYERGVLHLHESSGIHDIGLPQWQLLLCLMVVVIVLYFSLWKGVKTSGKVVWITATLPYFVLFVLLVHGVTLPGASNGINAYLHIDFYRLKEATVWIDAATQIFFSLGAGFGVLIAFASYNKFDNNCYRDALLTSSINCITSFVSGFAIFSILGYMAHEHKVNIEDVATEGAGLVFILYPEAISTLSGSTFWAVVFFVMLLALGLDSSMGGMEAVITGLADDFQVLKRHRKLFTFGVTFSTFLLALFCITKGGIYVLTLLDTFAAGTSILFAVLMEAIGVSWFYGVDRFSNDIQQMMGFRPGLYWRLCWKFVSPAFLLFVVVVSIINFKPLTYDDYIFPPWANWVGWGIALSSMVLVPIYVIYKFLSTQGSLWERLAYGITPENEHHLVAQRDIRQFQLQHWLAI
# T2 sequence (Q01959 whole entry): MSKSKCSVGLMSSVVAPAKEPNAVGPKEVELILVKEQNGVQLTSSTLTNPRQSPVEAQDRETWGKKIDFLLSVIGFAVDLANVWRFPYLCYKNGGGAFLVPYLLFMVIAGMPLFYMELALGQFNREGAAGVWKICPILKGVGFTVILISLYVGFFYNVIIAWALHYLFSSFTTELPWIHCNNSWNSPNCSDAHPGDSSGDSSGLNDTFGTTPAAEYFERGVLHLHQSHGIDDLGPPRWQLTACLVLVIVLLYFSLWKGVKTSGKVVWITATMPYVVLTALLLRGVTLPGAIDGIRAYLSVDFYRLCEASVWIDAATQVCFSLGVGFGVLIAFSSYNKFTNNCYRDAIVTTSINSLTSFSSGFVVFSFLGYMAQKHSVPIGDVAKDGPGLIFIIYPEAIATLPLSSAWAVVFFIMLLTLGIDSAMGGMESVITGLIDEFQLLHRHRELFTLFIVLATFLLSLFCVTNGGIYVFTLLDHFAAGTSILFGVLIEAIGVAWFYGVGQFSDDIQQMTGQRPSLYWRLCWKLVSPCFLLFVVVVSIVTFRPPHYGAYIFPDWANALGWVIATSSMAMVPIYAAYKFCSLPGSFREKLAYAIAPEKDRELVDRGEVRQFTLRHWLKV
# T3 sequence (P31645 whole entry): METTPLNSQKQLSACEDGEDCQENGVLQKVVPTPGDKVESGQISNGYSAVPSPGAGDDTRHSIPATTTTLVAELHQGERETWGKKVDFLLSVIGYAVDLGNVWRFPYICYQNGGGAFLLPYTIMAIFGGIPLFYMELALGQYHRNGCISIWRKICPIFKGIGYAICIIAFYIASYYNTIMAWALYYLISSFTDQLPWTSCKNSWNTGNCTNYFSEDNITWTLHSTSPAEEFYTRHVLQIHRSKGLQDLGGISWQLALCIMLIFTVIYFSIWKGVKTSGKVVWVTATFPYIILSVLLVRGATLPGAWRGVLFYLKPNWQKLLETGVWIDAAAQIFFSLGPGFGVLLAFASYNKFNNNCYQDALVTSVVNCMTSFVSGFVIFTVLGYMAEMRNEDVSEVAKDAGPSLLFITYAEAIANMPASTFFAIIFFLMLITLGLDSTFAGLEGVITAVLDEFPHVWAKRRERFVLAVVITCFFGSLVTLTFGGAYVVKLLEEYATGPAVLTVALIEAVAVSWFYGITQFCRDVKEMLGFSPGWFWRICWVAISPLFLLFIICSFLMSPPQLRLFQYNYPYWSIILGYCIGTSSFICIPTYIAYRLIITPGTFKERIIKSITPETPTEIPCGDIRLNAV
structure (smiles),measurement,setting,value
"CCN(CC)CCCC(C)Nc1ccnc2cc(Cl)ccc12 (centres unmarked) [Chloroquine, reference compound]",Heme-binding Ka,[1],5.5 10^4 M^−1
same,IC50,"[2]; D6, read-out: IC50, D6",6.8 nM
same,IC50,"[2]; D6, read-out: IC50 P. falciparum D6",8.4 nM
same,IC50,"[2]; D6, read-out: IC50 of CQ, CQ-sensitive strain D6",15 nM
same,IC50,[3],124 nM
same,formation of heme aggregates,[4],fails to prevent heme aggregation
same,IC50,[5],290 nM
same,IC50,"[6]; DD2, read-out: IC50, Dd2",132 nM
same,IC50,"[6]; DD2, read-out: IC50 P. falciparum Dd2",124 nM
same,IC50,[7],100 nM
same,IC50,[8],8.4 nM
"CCN(CC)CCOc1ccc2c(=O)c3ccccc3[nH]c2c1 [T1, 3-(2-diethylaminoethoxy)-9-acridone]",appearance of treated late trophozoites,[9],pale staining with loss of intracellular definition and fragmented hemozoin
same,IC50,[2]; [16],167 nM
same,IC50,[2]; [17],167 nM
same,IVTI,[10],>150
same,IC50,"[10]; read-out: IC50, MSLCs, Table 2",> 25000 nM
same,IC50,"[10]; read-out: IC50 MSLCs, Table 3",> 25000 nM
same,IC50,[6]; [18],159 nM
same,IC50,[6]; [19],159 nM
"CCN(CC)CCOc1ccc2c(=O)c3ccc(Cl)cc3[nH]c2c1 [T2, 3-(2-diethylaminoethoxy)-6-chloro-9-acridone]",toxicity,P. yoelii sporozoites,No toxicity was observed
same,"treated animals parasite-free on days 6, 11 and 14",P. yoelii sporozoites,all 5 treated animals to be parasite-free
same,Heme-binding Ka,[1],4.3 10^4 M^−1
same,Ki,[11],5850 nM
same,Ki,[12],> 10000 nM
same,IC50,[2]; [16],18 nM
same,IC50,[2]; [17],26 nM
same,formation of heme aggregates,[4],prevent the formation of heme aggregates
same,ED90,P. berghei (ANKA); P. berghei (ANKA),80 mg/kg/day
same,ED50,"P. berghei (ANKA); patent P. berghei (ANKA) infection, by gavage",55 mg/kg/day
same,weight loss,[13],10%
same,mice parasite-free to the end of the observation period,[14]; 200 mg/kg/day,all of the four mice in that group remained parasite-free
same,suppression of parasitemia,"[14]; 200 mg/kg/day, assessed 24 hours after the last dose",completely suppressed parasitemia; also recorded: complete suppression
same,ED50,"[14]; Plasmodium yoelii, po, 96 h, ig by gavage, once daily, 4 days",27.1 mg/kg
same,ED90,"[14]; ig by gavage, once daily, 4 days",42 mg/kg
same,reduction of parasitemia at 72 hours,P. yoelii,greater than 90%
same,cytotoxicity at the highest tested concentration,[10]; 25 μM,no evidence of cytotoxicity
same,IVTI,[10],>1389
same,IC50,"[10]; read-out: IC50, MSLCs, Table 2",> 25000 nM
same,IC50,"[10]; read-out: IC50 MSLCs, Table 3",> 25000 nM
same,IC50,[6]; [18],17 nM
same,IC50,[6]; [19],33 nM
same,interaction with quinine,MDR P. falciparum Dd2,not and no evidence of synergy
same,"long-term outcome (parasitemia at 30 days, cure)",P. yoelii (K); 256 mg/kg/day,long-term cure
same,"ED50 and ED90, gavage (ig) dosing, in words","P. yoelii (K); ig, three once-daily doses",comparable
same,ED50 (ip),P. yoelii (K); ip once daily for three days,38 mg/kg/day
same,ED90 (ip),P. yoelii (K); ip once daily for three days,66 mg/kg/day
same,Ki,[15],> 10000 nM
